Assays:
[1] = tested on: LPS-IFN—induced nitrite production; assay: MIF-dependent nitrite production in peritoneal macrophages (Greiss assay); assay type: cell-based, mouse; settings: for inhibition at 100 µM: Mus musculus, Peritoneal macrophage, compound 100 μM, LPS 10 ng/ml + interferon-γ 10 units/ml, 24 h, read-out: % Inhibition of nitrite (± SD)
Experimental: MIF is able to induce or facilitate the expression and release of a wide variety of pro-inflammatory and/or destructive molecules, including the release of macrophage nitric oxide (NO) ^(20). A compound with the ability to inhibit the cytokine or biological function of MIF might be expected to inhibit the activation of NO production by macrophages.
C57BL6/J male mice were injected intraperitoneally with 2 ml of thioglycolate. Three days later peritoneal macrophages were collected by lavaging the peritoneum with 3 ml of cold Hank's buffered saline solution. Cells from several mice were pooled, washed and re-suspended in DMEM supplemented with 5% FCS. Cells were plated in 96 well plastic tissue culture plates at 1×10^5 cells/well. Cells were treated in triplicate wells with compound or vehicle for 1 hour in a 5% CO2 incubator at 37° C. Cells were then treated with LPS (10 ng/ml) and recombinant human interferon-γ (10 units/ml) and incubated for 24 hours. After 24 hours, 50 μl of supernatant from each well was carefully removed and transferred to ELISA plates. The production of NO was measured by analysing the concentration of nitrite in culture supernatants, as measured by the Greiss assay ^(21). The results were calculated as the percentage inhibition of nitrite concentration in compound-treated cell culture supernatants, compared to that of vehicle-treated cells.

[2] = tested on: MIF-induced proliferation of mouse NIH 3T3 fibroblasts; assay: MIF-induced proliferation in mouse fibroblasts (3H-thymidine incorporation); assay type: cell-based; settings: Compound (10×^10−6M) + MIF 50 ng/ml; nil 1087, MIF + vehicle 1452
Experimental: The activity of compounds was studied in a bioassay utilising MIF-induced proliferation of mouse NIH 3T3 fibroblasts. […] NIH 3T3 cells were propagated in DMEM/10% foetal calf serum (FCS). Prior to experimentation, cells were seeded at 10^4 cells/well in 96-well plates in DMEM/10% FCS for 18 hours. The media was then replaced with DMEM/0.1% FCS and the cells incubated for a further 18 hr. At time point −1 hr, culture medium was replaced with DMEM/0.1% FCS and cells were treated with a compound of the invention at a final concentration of 10 μM or vehicle. At time point zero, cells were treated with MIF at a final concentration of 50 ng/ml. At time point 6 hr the cells were pulsed with 1 µCi/well of ^3H-thymidine. At time point 24 hours, cells were harvested using a semi-automated cell harvester. The radioactivity incorporated into DNA was determined by liquid scintillation counting, with results expressed as ^3H-thymidine incorporation (cpm). Statistical significance was analysed using the Mann-Whitney test.

[3] = tested on: LPS-induced serum IL-1, IL-6, and TNF; assay: Mouse endotoxic shock model (serum cytokines by ELISA); assay type: in vivo; settings: for effect on serum IL-1: 5 mg/kg; for IL-1 (pg/ml), serum: 5 mg/kg i.p. 24 h and 1 h before LPS 5 mg/kg, saline 175 ± 43, LPS plus vehicle 428 ± 168; for IL-1 (pg/ml), serum / IL-6 (ng/ml), serum / TNF (pg/ml), serum: 1.5 h after LPS; for effect on serum IL-6 / effect on serum TNF: 15 mg/kg; for IL-6 (ng/ml), serum / TNF (pg/ml), serum: 15 mg/kg i.p. 24 h and 1 h before LPS 5 mg/kg; for IL-6 (ng/ml), serum: saline 4 ± 4, LPS plus vehicle 118 ± 30; for TNF (pg/ml), serum: saline 189 ± 69, LPS plus vehicle 2022 ± 1245
From the text: The activity of compounds was studied in the murine endotoxic shock model. In this model, features of shock, characterised by increased serum levels of cytokines such as IL-1, tumor necrosis factor (TNF), and interleukin 6 (IL-6), are induced by the injection of bacterial lipoloysaccharide (LPS). The in vivo production of IL-1, IL-6, and TNF in response to endotoxin has been previously shown to be dependent on MIF ^(23).
Groups of four mice were used in each experiment. Endotoxaemia was induced by intra-peritoneal injection of lipopolysaccharide (LPS) (5 mg/kg) in 300 μl saline. Mice injected with saline alone were used as a control group. Treatments were administered by intra-peritoneal injection at intervals 24 hours and 1 hour before intra-peritoneal LPS injection. Mice were treated with saline, compounds dissolved in DMSO/saline vehicle at a dose of 5-15 mg/kg body weight, or vehicle (containing matching concentrations of DMSO).
After 1.5 hours mice were humanely killed by CO2 inhalation then neck dislocation. Serum was obtained from blood obtained by cardiac puncture prior to death and measured for the concentration of cytokines including IL-1, TNF, and/or IL-6, by ELISA. Statistical significance was analysed using the Mann-Whitney test.

[4] = tested on: IL-1 induced COX-2 expression; assay: Combination of MIF-antagonist with glucocorticoid: IL-1 induced fibroblast COX-2 expression; assay type: cell-based, human; settings: IL-1 + dexamethasone 1 nM alone; control 0.7400, IL-1 49.37
Experimental: S112 human dermal fibroblasts were propagated in RPMI/10% foetal calf serum (FCS). Prior to experimentation, cells were seeded at 2×10^5 cells/ml in RPMI/0.1% BSA for 18 hours. Cells were treated with compound at 1-100 μM and 30 minutes later with recombinant human IL-1 (0.1 ng/ml). After 6 hours, cells were collected and intracellular COX-2 protein determined by permeabilisation flow cytometry, as described by Sampey et al ^(18). Cells permeabilised with 0.2% saponin were sequentially labelled with a mouse anti-human COX-2 monoclonal antibody and with sheep-anti-mouse F(ab)2 fragment labelled with fluoroscein isothiocyanate. Cellular fluorescence was determined using a flow cytometer. At least 5000 events were counted for each reading, each of which was performed in duplicate, and the results expressed in mean fluorescence intensity (MFI) after subtraction of negative control-labelled cell fluorescence.
The above in vitro assay (Biological Example 2) for analysing the effect of MIF antagonists on IL-1 induced COX-2 expression was performed using 2-(2-hydroxyethoxy)-2-(4′-hydroxy-3′-methylphenyl)-1,3-dioxolane (Compound 1) (50 μM), dexamethasone (1 nM) or a combination of dexamethasone (1 nM) and Compound 1 (50 μM). COX-2 expression was expressed as the mean fluorescence intensity (MFI) as measured by flow cytometry, after deduction of the MFI for control-labelled samples, as described by Sampey et al. ^(18).

Compound | inhibition at 100 µM [1] [%] | melting point [°C] | Mean cpm (3H-thymidine incorporation) [2] [cpm] | effect on serum IL-1 [3] | IL-1 (pg/ml), serum [3] [pg/mL] | effect on serum IL-6 [3] | effect on serum TNF [3] | IL-6 (ng/ml), serum [3] [ng/mL] | TNF (pg/ml), serum [3] [pg/mL] | also measured
Brc1ccc(C2NCCS2)cc1 (centres unmarked) [Compound 4, 2-(4-Bromophenyl)-1,3-thiazolane] | 22 ± 1 | 107 |  |  |  |  |  |  |  | 
COc1ccc(C2NCCS2)cc1 (centres unmarked) [Compound 5, 2-(4-Methoxyphenyl)-1,3-thiazolane] | 22 ± 2 | 94 to 95 |  |  |  |  |  |  |  | 
COc1cc(C2NCCS2)ccc1O (centres unmarked) [Compound 7, 2-(4-Hydroxy-3-methoxyphenyl)-1,3-thiazolane] | 15 ± 1 | 158 to 161 | 1281 |  |  |  |  |  |  | 
COc1ccc(C2NCCS2)cc1OC (centres unmarked) [Compound 8, 2-(3,4-Dimethoxyphenyl)-1,3-thiazolane] |  | 54 to 56 | 1238 |  |  |  |  |  |  | 
COc1ccc(-c2cnn(CCC(C)C)c2)cc1 [Compound 12, 4-(4-Methoxyphenyl)-1-(3-methylbutyl)-1H-pyrazole] | 78 ± 9 |  |  | inhibitory effect | 286 ± 102 | inhibitory effect | inhibitory effect | 80 ± 16 | 1636 ± 468 | 
Cc1ccc(-c2cnn(CCC(C)C)c2)cc1 [Compound 13, 1-(3-Methylbutyl)-4-(4-methylphenyl)-1H-pyrazole] | 91 ± 8 |  | 1015 | inhibitory effect | 305 ± 51 | inhibitory effect | inhibitory effect | 92 ± 7 | 1067 ± 191 | inhibition of LPS-IFN—induced nitrite production ([1]; 0.5-100 μM, FIG. 8): dose-responsive inhibition
CCCCCCC1(c2ccc(C)cc2)SCCS1 [Compound 17, 2-Hexyl-2-(4-methylphenyl)-1,3-dithiolane] | 69 ± 2 |  | 933.2 |  |  |  |  |  |  | inhibition of LPS-induced serum IL-6 ([3]; 5 and 15 mg/kg, FIG. 10b): marked inhibition; inhibition of LPS-induced serum TNF ([3]; 5 and 15 mg/kg, FIG. 10c): marked inhibition; inhibition of LPS-induced serum IL-1 ([3]; 5 and 15 mg/kg, statistically significant P<0.05, FIG. 10a): marked inhibition
c1csc(-c2ccc(C3OCCS3)cc2)c1 (centres unmarked) [Compound 33, 2-(4-Thien-2-ylphenyl)-1,3-oxathiolane] | 47 ± 4 |  |  | inhibitory effect | 360 ± 72 | inhibitory effect | inhibitory effect | 95 ± 14 | 1152 ± 317 | 
C[C@@H]1C[C@H]2[C@@H]3CCC4=CC(=O)C=C[C@]4(C)[C@@]3(F)[C@@H](O)C[C@]2(C)[C@@]1(O)C(=O)CO [DEX, dexamethasone, reference compound] |  |  |  |  |  |  |  |  |  | Mean COX-2 expression (MFI) [4]: 15.13 MFI
